Assay results published in PubChem BioAssay (NCI).
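Values below derive from 48-hour exposures of cells grown in 96-well plates, with endpoints linearly interpolated between the two concentrations bracketing the appropriate inhibition level. GI50 = concentration required for 50% inhibition of growth. Definition used: TGI = concentration required for complete inhibition of growth.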

Assays:
Assay in all cases: NCI-60 cell line screen, 48 h
[1] = tested on: SK-MEL-2 melanoma
[2] = tested on: NCI-H23 lung
[3] = tested on: SW-620 colon
[4] = tested on: NCI/ADR-RES ovarian
[5] = tested on: MOLT-4 leukemia
[6] = tested on: COLO 205 colon
[7] = tested on: SF-268 CNS
[8] = tested on: NCI-H226 lung
[9] = tested on: EKVX NSCLC
[10] = tested on: TK-10 renal

SMILES | TGI [1] | TGI [2] | TGI [3] | TGI [4] | TGI [5] | TGI [6] | TGI [7] | TGI [8] | TGI [9] | TGI [10] | GI50 [5] | GI50 [6] | GI50 [1] | GI50 [4] | GI50 [8]
Cn1c(SCc2ccc([N+](=O)[O-])cc2)nnc1C12CC3CC(CC(C3)C1)C2 | > 10 µM | > 10 µM | > 10 µM | > 10 µM | > 10 µM | > 10 µM | > 10 µM | > 10 µM | > 10 µM |  |  |  |  |  | 
C[C@]12CC[C@@H]3c4cc(C=O)c(OCc5ccccc5)cc4CC[C@H]3[C@@H]1CCC2OCc1ccccc1 (stereo partly specified) | > 100 µM | > 100 µM | > 100 µM | > 100 µM | > 100 µM | > 100 µM | > 100 µM | > 100 µM | > 100 µM | > 100 µM |  |  |  |  | 
COc1ccc(CNCCN2C(=O)c3ccc4c5c(ccc(c35)C2=O)C(=O)N(CCNCc2ccc(OC)c(OC)c2OC)C4=O)c(OC)c1OC |  |  |  |  | 0.613 µM | 0.168 µM |  |  |  |  | 0.151 µM | 0.0899 µM |  |  | 
N#Cc1cc([N+](=O)[O-])ccc1NC(=O)C(=O)Nn1c(=S)[nH]c2ccccc2c1=O |  | > 100 µM | > 100 µM |  |  | > 100 µM | > 100 µM | > 100 µM | > 100 µM | > 100 µM |  |  |  |  | 
Cc1ccc2c(=O)cc(-c3ccccc3)[nH]c2n1 | > 100 µM | 16.8 µM | > 100 µM | 0.31 µM | > 28.3 µM |  | > 100 µM | 9.69 µM | > 100 µM | > 9.36 µM |  |  |  |  | 
CCN1CCC(O)(/C=C/c2ccc(Cl)c(Cl)c2)C(C(=O)/C=C/c2ccc(Cl)c(Cl)c2)C1 (stereo unspecified) | 3.66 µM | 2.06 µM | 1.4 µM | 2.27 µM |  | 1.74 µM | 2.54 µM | 3.81 µM | 1.89 µM | 2.81 µM |  |  |  |  | 
COc1cccc2c1CCc1sc(CN3CCN(C)CC3)nc1-2 | > 100 µM | > 100 µM | > 100 µM | > 100 µM | 63.9 µM | > 100 µM | > 100 µM | > 100 µM | > 100 µM | > 100 µM |  |  |  |  | 
CC(C)(C)c1ccc(OCCOc2ccc(C(C)(C)C)cc2NC=O)c(NC=O)c1 | 36.6 µM | 40.7 µM | > 58.3 µM | 37.7 µM | 19.1 µM | 4.33 µM | 65.8 µM | 28.1 µM | 98 µM | > 100 µM |  |  |  |  | 
CC(=O)OC1CC[C@@]2(C)C(=CC[C@@H]3[C@@H]2CC[C@]2(C)Nc4c(cnn4-c4ccc(F)cc4)C[C@@H]32)C1 (stereo partly specified) | > 73.6 µM | > 100 µM | > 100 µM | > 100 µM |  | > 78.7 µM | > 100 µM | > 100 µM | > 100 µM | > 100 µM |  |  |  |  | 
CC(C)C(C=O)C(O)(C(F)(F)F)C(F)(F)F (stereo unspecified) | > 100 µM | > 100 µM | > 100 µM | > 100 µM | > 100 µM | > 100 µM |  | > 100 µM | > 100 µM | > 100 µM |  |  |  |  | 
CN(CCCNC(=O)c1[nH]nc2c1ccc1ccccc12)CCCNC(=O)c1[nH]nc2c1ccc1ccccc12 | 23.6 µM | 33 µM | 35.2 µM | > 100 µM | 26.2 µM | 10.9 µM | 28.1 µM | 30.7 µM | 38.8 µM | 31.8 µM |  |  |  |  | 
Cn1cnc([N+](=O)[O-])c1Sc1nnc(-c2ccc(Cl)cc2)n1C | 34.8 µM | 32.1 µM | 23.5 µM |  | 66.1 µM | 24.3 µM | 54.7 µM | 65.9 µM | 20.4 µM | 31.6 µM |  |  |  |  | 
C=c1c2ccccc2oc2nc3[nH]c(N)c(C#N)c(N)c3c(=N)c12 | 37.8 µM | 62.7 µM | > 100 µM | > 100 µM | 89.2 µM | > 100 µM | 70.9 µM | 74.9 µM | 73 µM | > 100 µM |  |  |  |  | 
O=C1C(Nc2ccc(S(=O)(=O)Nc3cnc4ccccc4n3)cc2)=CC(=Nc2ccc(S(=O)(=O)Nc3cnc4ccccc4n3)cc2)c2ccccc21 | 36.3 µM | 36.1 µM | 32.1 µM | > 100 µM | 71.2 µM | 33.1 µM | 38.2 µM | 43.7 µM | 36.1 µM | > 54.7 µM |  |  |  |  | 
O=C(N/N=C/c1ccc(O)cc1)NNCCO | > 100 µM | > 100 µM | > 100 µM | > 100 µM | > 100 µM | > 100 µM |  | > 100 µM |  | > 100 µM |  |  |  |  | 
CCCN1CCN(c2ccc3nc(-c4ccc5nc(-c6ccc(OCC)cc6)[nH]c5c4)[nH]c3c2)CC1 | 5.86 µM |  |  | > 100 µM | 3.42 µM |  |  | 32.9 µM |  |  | 1.06 µM |  | 2.34 µM | 2.84 µM | 10.1 µM
Cc1nc2cc3[nH]c4ccccc4c(=O)c3cc2s1 | > 100 µM | > 100 µM | > 100 µM |  | > 100 µM | > 100 µM | > 100 µM | > 100 µM | > 100 µM | > 100 µM |  |  |  |  | 
C#CCN1C(=O)CN2C(Cl)(Cl)C2(c2ccccc2)c2cc(Cl)ccc21 (stereo unspecified) | > 100 µM | > 100 µM | > 100 µM |  | 57.4 µM | > 100 µM | > 100 µM | > 100 µM | > 100 µM | > 100 µM |  |  |  |  | 
CCN(CC)CCNC(=O)C1COc2ccc(-c3cc(=O)c4ccccc4o3)cc2O1 (stereo unspecified) | 38 µM | 60.3 µM | 45.9 µM | 45.8 µM | 57.9 µM | 34 µM | 55.9 µM | 31.3 µM | 61 µM |  |  |  |  |  | 
O=C1C2Cc3ccccc3CN2C(=O)N1CN1CCCCC1 (stereo unspecified) | > 100 µM | > 100 µM | > 100 µM |  | > 100 µM | > 100 µM | > 100 µM | > 100 µM |  | > 100 µM |  |  |  |  | 
c1ccc(C2SCc3nc4ccccc4n32)cc1 (stereo unspecified) | > 100 µM | > 100 µM | > 100 µM |  | > 100 µM | > 100 µM | > 100 µM | > 100 µM | > 100 µM | > 100 µM |  |  |  |  | 
COC(=O)C12CCC(CC1=O)C2(C)C (stereo unspecified) |  | > 100 µM | > 100 µM |  | > 100 µM | > 100 µM |  | > 100 µM | > 100 µM | > 100 µM |  |  |  |  | 
CN1C(=O)c2c(c3c4ccccc4n(C)c3c3c2c2ccccc2n3C)C1=O | > 100 µM | > 100 µM | > 100 µM | > 100 µM | > 100 µM | > 100 µM |  | > 100 µM | > 100 µM | > 100 µM |  |  |  |  | 
